Laboratory results: the supplement of paper PMC10307832

Legend:
Assay in all cases: relative viability (nuclei count vs DMSO), 5 days (fraction); higher = more cells survive
SGI-1776 + OSI-027 = compound: CN1CCC(CNc2ccc3ncc(-c4cccc(OC(F)(F)F)c4)n3n2)CC1 [SGI-1776] + COc1cccc2cc(-c3nc([C@H]4CC[C@H](C(=O)O)CC4)n4ncnc(N)c34)[nH]c12 [OSI-027] (partner 0.5 µM)
Procedure, shortened: (§1)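 Lung cancer cell lines were seeded in 1536-well plates and dosed by pin tool the next day, with either a single drug or a fixed anchor-drug dose combined with five library-drug doses (not always all listed) spaced in √10 steps. Five days later, one step fixed the cells and stained their nuclei (final 0.05% Triton X-100, 1% formaldehyde, 1 ug/ml Hoechst), and nuclei were counted on 4× images. Relative viability is the nuclei count in treated wells divided by the count in vehicle wells, and each value is the median of duplicate plates.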

SGI-1776 + Olaparib = compound: CN1CCC(CNc2ccc3ncc(-c4cccc(OC(F)(F)F)c4)n3n2)CC1 [SGI-1776] + O=C(c1cc(Cc2n[nH]c(=O)c3ccccc23)ccc1F)N1CCN(C(=O)C2CC2)CC1 [Olaparib] (partner 8 µM)
Procedure, shortened: as §1

Entinostat + Pictilisib = compound: Nc1ccccc1NC(=O)c1ccc(CNC(=O)OCc2cccnc2)cc1 [Entinostat] + CS(=O)(=O)N1CCN(Cc2cc3nc(-c4cccc5[nH]ncc45)nc(N4CCOCC4)c3s2)CC1 [Pictilisib] (partner 1 µM)
Procedure, shortened: as §1

Entinostat + Olaparib = compound: Nc1ccccc1NC(=O)c1ccc(CNC(=O)OCc2cccnc2)cc1 [Entinostat] + O=C(c1cc(Cc2n[nH]c(=O)c3ccccc23)ccc1F)N1CCN(C(=O)C2CC2)CC1 [Olaparib] (partner 8 µM)
Procedure, shortened: as §1

| Cell Line | relative viability (SGI-1776 + OSI-027; first compound 0.08 µM) | relative viability (SGI-1776 + OSI-027; first compound 0.8 µM) | relative viability (SGI-1776 + OSI-027; first compound 2.53 µM) | relative viability (SGI-1776 + OSI-027; first compound 8 µM) | relative viability (SGI-1776 + Olaparib; first compound 0.08 µM) | relative viability (SGI-1776 + Olaparib; first compound 0.8 µM) | relative viability (SGI-1776 + Olaparib; first compound 2.53 µM) | relative viability (SGI-1776 + Olaparib; first compound 8 µM) | relative viability (Entinostat + Pictilisib; first compound 0.02 µM) | relative viability (Entinostat + Pictilisib; first compound 0.06325 µM) | relative viability (Entinostat + Pictilisib; first compound 0.2 µM) | relative viability (Entinostat + Pictilisib; first compound 0.6325 µM) | relative viability (Entinostat + Pictilisib; first compound 2 µM) | relative viability (Entinostat + Olaparib; first compound 0.02 µM) | relative viability (Entinostat + Olaparib; first compound 0.06325 µM) | relative viability (Entinostat + Olaparib; first compound 0.2 µM) | relative viability (Entinostat + Olaparib; first compound 0.6325 µM) | relative viability (Entinostat + Olaparib; first compound 2 µM) |
| --- | --- | --- | --- | --- | --- | --- | --- | --- | --- | --- | --- | --- | --- | --- | --- | --- | --- | --- |
| NCI-H1792 | 0.764 | 0.68 | 0.688 | 0.514 | 0.623 | 0.533 | 0.429 | 0.453 | 0.245 | 0.239 | 0.164 | 0.0977 | 0.0839 | 0.488 | 0.358 | 0.483 | 0.133 | 0.0504 |
| NCI-H358 | 0.747 | 0.856 | 0.663 | 0.304 | 0.648 | 0.605 | 0.569 | 0.403 | 0.332 | 0.327 | 0.369 | 0.278 | 0.187 | 0.574 | 0.649 | 0.593 | 0.342 | 0.172 |
| NCI-H1755 | 0.703 | 0.637 | 0.533 | 0.529 | 0.913 | 0.848 | 0.798 | 0.671 | 0.383 | 0.408 | 0.367 | 0.204 | 0.205 | 0.877 | 0.816 | 0.598 | 0.458 | 0.377 |
| EPLC-272H | 0.32 | 0.249 | 0.306 | 0.274 | 1.01 | 0.922 | 0.737 | 0.348 | 0.419 | 0.37 | 0.327 | 0.219 | 0.254 | 0.726 | 0.614 | 0.875 | 0.273 | 0.191 |
| NCI-H2228 | 0.644 | 0.582 | 0.425 | 0.275 | 0.671 | 0.762 | 0.548 | 0.396 | 0.289 | 0.285 | 0.292 | 0.253 | 0.161 | 0.633 | 0.749 | 0.613 | 0.254 | 0.176 |
